Test results taken from patent publication US20230414546A1, “Combined Therapy Against Cancer” (UNIVERSITAT POLITÈCNICA DE CATALUNYA, priority 2020, published 2023).

Key:
MG-63 sarcospheres = assay: Sarcosphere formation (cancer stem cells), MG-63; format: cell-based; conditions: treated at day 3 for 7 days, PTM 5 and 20 min, S3I-201 100 μM
Experimental: (§1) FIGS. 7A-7C. Synergic effect of the combined therapy on sarcosphere number reduction. The (A) MG-63 sarcospheres and (B) 143.6 sarcospheres formed were scored (size […]) and counted. Data represent the number of sarcospheres formed as mean and standard deviation of n=6 independent experiments (*p<0.01; **p<0.001; ****p<0.0001 one-way ANOVA). (C) Concentration of NO2- and H2O2 in micromolar concentration in PTM 5, 10 or 20 min.
(§2) Osteosarcoma cells MG-63 and 143.B were cultured in sarcosphere-forming conditions (Cancer Stem Cell (CSC) isolation standard method) for 3 days and then were incubated for another 7 days in contact with PTM according to the following parameters: Helium flow rate: 1 L/min; Gap between APPJ nozzle and CSC medium surface: 10 mm; Treatment times: between 5 and 20 minutes. The CSC Medium was DMEM/F-12 supplemented with GlutaMAX™ (1X; Gibco™, cat.no 10565018, Carlsbad, CA, USA), B-27 Supplement (1:50; Life Technologies), Heparin (1:1000; Sigma), human bEGF (20 ng/ml), human bFGF (10 ng/ml; GoldBio) and sodium pyruvate. The sarcospheres were treated at day 3 with PTM (5 and 20 min), with S3I-201 (100 μM) or with the combination of both for 7 days more.

143.6 sarcospheres = assay: Sarcosphere formation (cancer stem cells), 143.B; format: cell-based, human; conditions: 143.6 cells; treated at day 3 for 7 days; PTM 5 and 20 min, S3I-201 100 μM
Experimental: as §1, §2

[1] = test system: human 143B osteosarcoma cells; assay: Murine orthotopic osteosarcoma model, tumor volume; format: in vivo; conditions: nude mice, tibia; daily para-tumoral 100 μL PTM—20 min; 5 mg/kg S3I-201 orally three times per week; versus control
Experimental: FIG. 8. […] Tumor volume of the different groups at final day (when tumors reach 1000 mm^3) . The one-way ANOVA was performed to determine the statistical significance between control and treated groups.
To investigate the role PTM in combination with S3I-201 in osteosarcoma disease development, we used a murine orthotopic osteosarcoma model in which human 143B osteosarcoma cells are injected into the tibia of immunodeficient mice. All in vivo tumor experiments were performed with female nude mice (NMRI-Foxn1 nu/nu mice from Janvier Labs). For orthotopic primary tumor growth, 50,000 cells were injected into the right tibia of 7 weeks old mice under isoflurane anaesthesia. Mice received a daily para-tumoral injection of 100 μL of PTM—20 min or 5 mg/kg S3I-201 (orally, dissolved in corn oil) three times per week, or a combination of both treatments. In parallel, control group received a daily para-tumoral injection of Ringer's Saline or 200 μL corn oil orally. Primary tumors were detected and quantified by bioluminescent in vivo imaging five days day after cell injection and subsequently once a week until the tumors reached the study endpoint (termination criterion: primary tumor total flux>[…] photons/s). […] The one-way ANOVA was performed to determine the statistical significance between control and treated groups.

osteosarcoma cell lines = conditions: in vitro, cited from earlier work
[2] = Concentration of reactive species in plasma-treated hydrogel compositions; format: physicochemical; conditions: plasma treatment 180 seconds, concentration in the material
Text: The RONS concentration is quantified either using the AR/HRP reagent method or the Griess reagent method for H2O2 and NOi, respectively. Also, plastic strips with test paper which allow quantification of H2O2 based on a redox reaction and NOi, also using the Griess reagent may be used when a hydrogel is used and the protein solution causes interferences with the AR/HRP reagent method or the Griess reagent method. These two methods give equivalent results.
A 50/50 blend of 0.5 weight % alginate and 2 weight % gelatin solutions were prepared (final concentration of 0.25% wt alginate and 1% wt gelatin). The mixture of alginate/gelatin was prepared is by vortexing in a ratio 1:1, 2% wt gelatin with 0.5% wt alginate for 2 minutes. Gelatin in powder is mixed with MilliQ water at 37° C. using magnetic stirring for 2 hours to obtain a 2% wt gelatin gel. 0.5% alginate was prepared by mixing alginate powder with MilliQ water using a SpeedMixer™ DAC 150.1 FVZ-K (SpeedMixer™, Germany) at 3500 r.p.m. for 15 min. The 0.25% wt alginate and 1% wt gelatin aqueous mixture was treated with an atmospheric pressure plasma jet kINPen IND® (Neoplas, Germany) operating with Argon to generate plasma. Treatment conditions: 1 Umin gas flow, 10 mm nozzle distance, and 180 seconds treatment. Treatment performed in 200 μL of mixture in a 96-well plate. […]

| H2O2 [2] | NO2− [2] | Compound | number / growth of sarcospheres at day 10 (MG-63 sarcospheres) | number / growth of sarcospheres at day 10 (143.6 sarcospheres) | tumor volume at final day [1] | apoptosis (osteosarcoma cell lines; caspase-3 pathway) | cell growth and colony formation (osteosarcoma cell lines) |
| --- | --- | --- | --- | --- | --- | --- | --- |
| – | – | Cc1ccc(S(=O)(=O)OCC(=O)Nc2ccc(C(=O)O)c(O)c2)cc1 [S3I-201] | significantly reduced | significantly reduced | display a tumor volume in a similar way that control | apoptosis enhancement via the caspase-3 pathway | significant inhibition of cell growth and colony formation |
| 10.3 mg/L | 2.6 mg/L | Water | – | – | – | – | – |
